From patent US20250242032A1, “AGGREGATE FORMED BY MEANS OF ASSEMBLING CHALCOGEN HETEROCYCLIC COMPOUND AND INSULIN, AND PREPARATION METHOD THEREFOR, AND INSULIN ORAL PREPARATION” (FUZHOU UNIVERSITY, priority 2021, published 2025)

Experiments:
Caco-2 cells = test: Trans-epithelial electrical resistance (TEER), integrity of epithelial cell layer; assay type: cell-based, human; settings: Caco-2 monolayer, monitored for 12 hours
diabetic model mice [1] = test: Blood glucose of diabetic model mice after oral administration of enteric-coated capsule loading lyophilized aggregate; assay type: in vivo, C57BL/6J mice
Description: (1) Streptozotocin (STZ) was intraperitoneally injected into 6-8 week-old C57BL/6J mice for five consecutive days to induce pancreatic islet B-cell damage. On the 17th day after the first injection, the blood glucose concentration of the mice was measured, and the diabetic mouse model was considered to be successfully established when the blood glucose concentration was higher than 300 mg/dL. (2) After the diabetic model mice were orally administered with a suspension of the above aggregate at an amount of insulin of 80 U/kg, blood was collected from the tail vein of the mice at different time points to monitor the change in blood glucose. In control experiment 1, an equal amount of free insulin was administered orally to the diabetic model mice. In control experiment 2, an equal volume of physiological saline was administered orally to the diabetic model mice. In control experiment 3, insulin was injected subcutaneously to the diabetic model mice at 5 U/kg. Change in blood glucose level of diabetic model mice after orally administered with an enteric-coated capsule loading the aggregate of insulin and chalcogen heterocyclic compound (1) The aggregate was prepared into a lyophilized powder and loaded in an enteric-coated capsule. In control experiment 1, an equal amount of free insulin was loaded in an enteric-coated capsule. (2) A diabetic mice model was established according to the method as above. The mice were administered with recombinant insulin at an amount of 20 U/kg, after which the blood was taken from the tail vein of the mice at different time points to monitor the change in blood glucose concentration. In control experiment 2, insulin was injected subcutaneously to the diabetic model mice at 5 U/kg.

diabetic model pigs = test: Blood glucose of diabetic model pigs after oral administration of enteric-coated capsule loading lyophilized aggregate; assay type: in vivo, Bama mini-pigs; settings: oral enteric-coated capsule loading free insulin, 20 U/kg
Description: Change in blood glucose level of diabetic model pigs after orally administered with an enteric-coated capsule loading the aggregate of insulin and chalcogen heterocyclic compound (1) Streptozotocin (STZ, with a concentration of 75 mg/mL) was infused intravenously to 4-month-old Bama mini-pigs at 150 mg/kg to induce pancreatic islet B-cell damage. On the 7th day after the first infusion, the blood glucose concentration of the pigs was measured, and the diabetic pig model was considered to be successfully established when the blood glucose concentration was higher than 300 mg/dL. (2) The aggregate was prepared into a lyophilized powder and loaded in an enteric-coated capsule. In control experiment 1, an equal amount of free insulin was loaded in an enteric-coated capsule. (3) The diabetic model pigs were administered with recombinant insulin at an amount of 20 U/kg, after which the blood was taken from the jugular vein of the pigs at different time points to monitor the change in blood glucose concentration. (4) The diabetic model pigs were given normal food at the 3rd and 8th hour after administration, and the food bowl was removed after 15 minutes.

diabetic model mice [2] = test: Blood glucose of diabetic model mice after oral administration of aggregate suspension; assay type: in vivo, C57BL/6J mice
Description: Change in blood glucose level of diabetic model mice after administered orally with the aggregate of insulin and chalcogen heterocyclic compound (1) Streptozotocin (STZ) was intraperitoneally injected into 6-8 week-old C57BL/6J mice for five consecutive days to induce pancreatic islet B-cell damage. On the 17th day after the first injection, the blood glucose concentration of the mice was measured, and the diabetic mouse model was considered to be successfully established when the blood glucose concentration was higher than 300 mg/dL. (2) After the diabetic model mice were orally administered with a suspension of the above aggregate at an amount of insulin of 80 U/kg, blood was collected from the tail vein of the mice at different time points to monitor the change in blood glucose. In control experiment 1, an equal amount of free insulin was administered orally to the diabetic model mice. In control experiment 2, an equal volume of physiological saline was administered orally to the diabetic model mice. In control experiment 3, insulin was injected subcutaneously to the diabetic model mice at 5 U/kg. Change in blood glucose level in diabetic model mice after administration of a suspension of the aggregate of insulin and chalcogen heterocyclic compound: The diabetic model mice were orally administered with a suspension of the aggregate 2 obtained above at an amount of insulin of 50 U/kg, and then the blood was collected from the tail vein of the mice at different time points to monitor the change in blood glucose concentration. In control experiment 1, an equal volume of physiological saline was administered orally to the diabetic model mice, and in control experiment 2, insulin was injected subcutaneously to the diabetic model mice at 5 U/kg. Change in blood glucose level in diabetic model mice after administration of a suspension of the aggregate of insulin and chalcogen heterocyclic compound: The diabetic model mice were orally administered with a suspension of the above aggregate 3 at an amount of insulin of 50 U/kg. […]

[3] = subcutaneous injection 5 U/kg, 15 minutes after injection
[4] = subcutaneous injection 5 U/kg, within 15-180 minutes

Compound	change in TEER (Caco-2 cells)	reduction in blood glucose concentration (diabetic model mice [1]; oral enteric-coated capsule loading free insulin, 20 U/kg)	reduction in blood glucose (diabetic model mice [1]; [3])	reduction of blood glucose concentration (diabetic model mice [1]; [4])	reduction in blood glucose concentration (diabetic model pigs)	reduction in blood glucose concentration (diabetic model mice [2]; oral, equal amount of free insulin (80 U/kg))	reduction in blood glucose concentration (diabetic model mice [2]; [3])	reduction of blood glucose concentration (diabetic model mice [2]; [4])
CCCCCCCCCC(=O)[O-].[Na+] [sodium caprate]	drastically reduced	–	–	–	–	–	–	–
free insulin: human recombinant insulin, used unencapsulated as oral control or subcutaneous injection control	–	little reduction	significant reduction	30-50%	little reduction	little reduction	significant reduction	30-50%
